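96-well plates; 48 h exposure; 5 concentrations. Endpoints by linear interpolation between flanking doses. Not reached: highest tested concentration assigned. TGI denotes the concentration required for complete inhibition of growth.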
Tests used:
Assay in all cases: NCI-60 cell line screen, 48 h
U251 CNS = tested on: U251 CNS
A498 renal = tested on: A498 renal
HOP-62 NSCLC = tested on: HOP-62 NSCLC
CAKI-1 renal = tested on: CAKI-1 renal
NCI-H226 lung = tested on: NCI-H226 lung
SW-620 colon = tested on: SW-620 colon
K-562 leukemia = tested on: K-562 leukemia
LOX IMVI melanoma = tested on: LOX IMVI melanoma
OVCAR-4 ovarian = tested on: OVCAR-4 ovarian
UACC-257 melanoma = tested on: UACC-257 melanoma
RPMI-8226 leukemia = tested on: RPMI-8226 leukemia
TK-10 renal = tested on: TK-10 renal
NCI-H23 lung = tested on: NCI-H23 lung
SF-295 CNS = tested on: SF-295 CNS

Row | SMILES | TGI (U251 CNS) [µM] | TGI (A498 renal) [µM] | TGI (HOP-62 NSCLC) [µM] | TGI (CAKI-1 renal) [µM] | TGI (NCI-H226 lung) [µM] | TGI (SW-620 colon) [µM] | TGI (K-562 leukemia) [µM] | TGI (LOX IMVI melanoma) [µM] | TGI (OVCAR-4 ovarian) [µM] | TGI (UACC-257 melanoma) [µM] | TGI (RPMI-8226 leukemia) [µM] | TGI (TK-10 renal) [µM] | TGI (NCI-H23 lung) [µM] | TGI (SF-295 CNS) [µM]
1 | O=C(ON=C1c2ccccc2C(Br)C(Br)c2ccccc21)c1cc([N+](=O)[O-])cc([N+](=O)[O-])c1 (configuration not stated) | 30.2 | 33.1 | 34.3 | 47.9 | 48.6 | 40.5 | 45.3 | 28.8 | 48.2 | 33.2 | 37 | 45.8 | 40.1 | > 88.9
2 | C[C@]12CCC(=O)C=C1CC[C@@H]1[C@@H]2CC[C@]2(C)C(=O)NC(=O)C[C@@H]12 | > 100 | > 100 | > 100 | > 100 | > 100 | > 100 | > 100 | > 100 | > 100 | > 100 | > 100 | > 100 | > 100 | > 100
3 | CNS(=O)(=O)NN(C)S(=O)(=O)c1ccccc1 | > 100 | > 100 | > 100 | > 100 | > 100 | > 100 | > 100 | > 100 | > 100 | > 100 | > 100 | > 100 | > 100 | > 100
4 | Cn1cc(C(=O)NCCC(=N)N)cc1NC(=O)C1=[N+](C)C=C(NC(=O)c2cccc(C(=O)NC3=CC(C(=O)Nc4cc(C(=O)NCCC(=N)N)cn4C)=[N+](C)C3)c2)C1 | > 100 | > 100 | > 100 | > 100 | > 100 | > 100 | > 100 | > 100 | > 100 | > 100 | > 100 | > 100 | > 100 | > 100
5 | CC(=O)OCC1=C(CCC#N)N2C(=O)C(NC(=O)Cc3cccs3)C2S(=O)C1 (configuration not stated) | > 100 | > 100 | > 100 | > 100 | > 100 | > 100 | > 100 | > 100 | > 100 | > 100 | > 100 | > 100 | > 100 | > 100
6 | COC(=O)[C@@H]1CN(C(C)=O)C(=O)N1 | > 100 | > 100 | > 100 | > 100 | > 100 | > 100 | > 100 | > 100 | > 100 | > 100 | > 100 | > 100 | > 100 | > 100
7 | Oc1ccccc1/C=C/c1csnn1 | > 100 | > 100 | > 100 | > 100 | > 100 | > 100 | > 100 | 99.1 | > 100 | > 100 | > 100 | > 100 | > 100 | > 100
8 | C=CCN1C(=O)/C(=C/c2ccco2)N=C1SC/C=C/C | > 100 | > 100 | > 100 | > 100 | > 100 | > 100 | > 100 | 80.6 | > 100 | > 100 | 76.6 | > 100 | > 100 | > 100
9 | CC(C)Cn1cnc2c(NCC(C)O)nc3ccccc3c21 (configuration not stated) | > 100 | > 100 | > 100 | > 100 | > 100 | > 100 | > 100 | > 100 | > 100 | > 100 | > 100 | > 100 | > 100 | > 100
10 | COc1ccc(Nc2nnc(-c3nsc4ccccc34)s2)cc1 | > 100 | 15.8 | 36.1 | > 100 | > 100 | > 100 | > 100 | > 100 | 6.73 | > 100 | > 100 | > 88.5 | > 100 | > 100
11 | Nc1ncnn2c(C3OC(CO)C(O)C3O)ccc12 (configuration not stated) | 4.14 | 0.539 | 1.48 | 0.486 | 0.866 | 35.1 | 0.569 | 0.0463 | 0.582 | 0.417 | 0.467 | 0.682 | 0.474 | 3.01
12 | COC(=O)C1(CCC(C)=O)CCCCCC1=O (configuration not stated) | > 100 | > 100 | > 100 | > 100 | > 100 | > 100 | > 100 | > 100 | > 100 | > 100 | > 100 | > 100 | > 100 | > 100
13 | c1ccc2c(c1)cc(C1NCCc3[nH]cnc31)c1ccccc12 (configuration not stated) | > 57.7 | 50 | > 88.6 | > 100 | > 68.1 | > 60.5 | 41.1 | 40.7 | > 86.8 | > 68.3 | > 78.4 | > 100 | > 100 | > 100
